In brackets after ≈: the same amount, converted by molar mass. Read-outs that look alike come from different tables or passages of the source.
Key:
Mycobacterium 607, D46 = test: MIC by two-fold agar dilution; format: cell-based; settings: Medium #1001, unit assumed
[1] = tested on: C. albicans #520 Yale A9540; test: MIC by two-fold agar dilution; format: cell-based; settings: Ca-4 C. albicans #520 Yale A9540; sabouraud agar; unit assumed
C. krusei #96 A15052 = test: MIC by two-fold agar dilution; format: cell-based; settings: Ck-2 C. krusei #96 A15052; sabouraud agar; unit assumed
K. pneumoniae A20328 = test: MIC by two-fold agar dilution; format: cell-based; settings: Mueller-Hinton agar, unit assumed
Mucor sp. = test: MIC by two-fold agar dilution; format: cell-based; settings: My-1 Mucor sp.; sabouraud agar; unit assumed
K. pneumoniae A9678 = test: MIC by two-fold agar dilution; format: cell-based; settings: Mueller-Hinton agar, unit assumed
P. stuartii A20894 = test: MIC by two-fold agar dilution; format: cell-based; settings: Mueller-Hinton agar, unit assumed
P. stuartii A20734 = test: MIC by two-fold agar dilution; format: cell-based; settings: Mueller-Hinton agar, unit assumed
E. coli NIHJ [2] = test: In vivo activity in experimental mice infection
Description: (§1) The in vivo activity of Bu-2231 complex was evaluated in experimental mice infections against S. aureus Smith and E. coli NIHJ. Bleomycin was tested comparatively as a reference antibiotic.
The in vivo activty of the individual components of Bu-2231 in each of the copper-free and copper complex forms was also determined in E. coli infection.

E. coli K-12 A9632 = test: MIC by two-fold agar dilution; format: cell-based; settings: Mueller-Hinton agar, unit assumed
S. cerevisiae ATCC 9763 = test: MIC by two-fold agar dilution; format: cell-based; settings: Sc-1 S. cerevisiae ATCC 9763; sabouraud agar; unit assumed
E. coli A20665 = test: MIC by two-fold agar dilution; format: cell-based; settings: Mueller-Hinton agar, unit assumed
T. asteroides = test: MIC by two-fold agar dilution; format: cell-based; settings: Ta-1 T. asteroides; sabouraud agar; unit assumed
C. neoformans (Cn-1) = test: MIC by two-fold agar dilution; format: cell-based; settings: Cn-1 C. neoformans; sabouraud agar; unit assumed
M. flavus D12 = test: MIC by two-fold agar dilution; format: cell-based; settings: Mueller-Hinton agar, unit assumed
P. mirabilis A9554 = test: MIC by two-fold agar dilution; format: cell-based; settings: Mueller-Hinton agar, unit assumed
K. pneumoniae A20680 = test: MIC by two-fold agar dilution; format: cell-based; settings: Mueller-Hinton agar, unit assumed
Hormodendrum sp. = test: MIC by two-fold agar dilution; format: cell-based; settings: Hy-1 Hormodendrum sp.; sabouraud agar; unit assumed
C. neoformans IAM 4514 = test: MIC by two-fold agar dilution; format: cell-based; settings: Cn-2 C. neoformans IAM 4514; sabouraud agar; unit assumed
E. coli NIHJ [3] = test: MIC by two-fold agar dilution; format: cell-based; settings: Mueller-Hinton agar, unit assumed
[4] = tested on: C. tropicalis #125 A15051; test: MIC by two-fold agar dilution; format: cell-based; settings: Ct-4 C. tropicalis #125 A15051; sabouraud agar; unit assumed
K. pneumoniae D11 = test: MIC by two-fold agar dilution; format: cell-based; settings: Mueller-Hinton agar, unit assumed
Mycobacterium 607, D87 = test: MIC by two-fold agar dilution; format: cell-based; settings: Medium #1001, unit assumed
C. krusei IAM 4489 = test: MIC by two-fold agar dilution; format: cell-based; settings: Ck-1 C. krusei IAM 4489; sabouraud agar; unit assumed
B. subtilis PCI-219 = test: MIC by two-fold agar dilution; format: cell-based; settings: Mueller-Hinton agar, unit assumed
[5] = mice, single subcutaneous injection, 16 days
Description: The acute toxicity of copper-free Bu-2231 A and B was determined in mice by a single subcutaneous injection. Groups of 3 mice were used for each dose level and the body weight was recorded for 16 days.

B. mycoides "0" = format: cell-based; settings: Mueller-Hinton agar, unit assumed
Lewis Lung carcinoma = settings: Exp. #55; for Survivors Day 5: toxicity evaluation
[6] = tested on: Walker 256 carcinosarcoma in ascitic form; settings: for Average Weight Change: recorded Day 5; for Survivors Day 44: survivors considered cured; for Survivors Day 5: toxicity evaluation;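 for all read-outs here: female SD rats bearing intraperitoneally implanted ascites tumor cells, treated ip once a day for 8 days beginning on Day 1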
S. aureus Smith = test: In vivo activity in experimental mice infection; settings: Table 11
Description: as §1

[7] = 1 mg/kg/day ip once daily for 9 days
[8] = 2 mg/kg/day ip once daily for 9 days
[9] = 4 mg/kg/day ip once daily for 9 days
[10] = 8 mg/kg/day ip once daily for 9 days
[11] = Exp. #5439, 160 mcg/kg/day ip once daily for 8 days
[12] = Exp. #5439, 640 mcg/kg/day ip once daily for 8 days
[13] = Exp. #5439, 2560 mcg/kg/day ip once daily for 8 days

Cc1c(N)nc([C@H](CC(N)=O)NC[C@H](N)C(N)=O)nc1C(=O)N[C@H](C(=O)N[C@H](C)[C@@H](O)CC(=O)N[C@H](C(=O)NC(O[C@@H]1O[C@@H](C)[C@@H](N)[C@@H](O)[C@H]1O)C(O)c1nc(-c2nc(C(=O)NCCCC(N)CC(=O)NCCCNCCCCN)cs2)cs1)[C@@H](C)O)[C@H](O[C@@H]1O[C@@H](CO)[C@@H](O)[C@H](O)[C@@H]1O[C@H]1O[C@H](CO)[C@@H](O)[C@H](OC(N)=O)[C@@H]1O)c1c[nH]cn1 (stereo partly shown) [Bu-2231 A Cu-free]
MIC (Mycobacterium 607, D46): 0.1 µg/mL (≈ 0.0577 µM) | MIC [1]: 3.1 µg/mL (≈ 1.79 µM) | MIC (C. krusei #96 A15052): 0.8 µg/mL (≈ 0.462 µM) | MIC (K. pneumoniae A20328): 0.8 µg/mL (≈ 0.462 µM) | MIC (Mucor sp.): 6.3 µg/mL (≈ 3.64 µM) | MIC (K. pneumoniae A9678): 0.2 µg/mL (≈ 0.115 µM) | MIC (P. stuartii A20894): 0.4 µg/mL (≈ 0.231 µM) | MIC (P. stuartii A20734): 0.4 µg/mL (≈ 0.231 µM) | PD50 (E. coli NIHJ [2]; Table 12, E. coli NIHJ infection, mice, sc): 0.024 mg/kg | In vivo activity vs. E. coli NIHJ infection (x/5 mice) (E. coli NIHJ [2]; Table 12, dose (sc) 0.008): 1/5 | In vivo activity vs. E. coli NIHJ infection (x/5 mice) (E. coli NIHJ [2]; Table 12, dose (sc) 0.03): 3/5 | In vivo activity vs. E. coli NIHJ infection (x/5 mice) (E. coli NIHJ [2]; Table 12, dose (sc) 0.13): 5/5 | In vivo activity vs. E. coli NIHJ infection (x/5 mice) (E. coli NIHJ [2]; Table 12, dose (sc) 0.5): 5/5 | In vivo activity vs. E. coli NIHJ infection (x/5 mice) (E. coli NIHJ [2]; Table 12, dose (sc) 2): 5/5 | MIC (E. coli K-12 A9632): 0.05 µg/mL (≈ 0.0289 µM) | MIC (S. cerevisiae ATCC 9763): 0.4 µg/mL (≈ 0.231 µM) | MIC (E. coli A20665): 0.05 µg/mL (≈ 0.0289 µM) | MIC (T. asteroides): 3.1 µg/mL (≈ 1.79 µM) | MIC (C. neoformans (Cn-1)): 0.4 µg/mL (≈ 0.231 µM) | MIC (M. flavus D12): 0.2 µg/mL (≈ 0.115 µM) | MIC (P. mirabilis A9554): 0.1 µg/mL (≈ 0.0577 µM) | MIC (K. pneumoniae A20680): 6.3 µg/mL (≈ 3.64 µM) | MIC (Hormodendrum sp.): 0.8 µg/mL (≈ 0.462 µM) | MIC (C. neoformans IAM 4514): 0.4 µg/mL (≈ 0.231 µM) | MIC (E. coli NIHJ [3]): 0.025 µg/mL (≈ 0.0144 µM) | MIC [4]: 0.8 µg/mL (≈ 0.462 µM) | MIC (K. pneumoniae D11): < 0.0063 µg/mL | MIC (Mycobacterium 607, D87): 0.2 µg/mL (≈ 0.115 µM) | MIC (C. krusei IAM 4489): 0.8 µg/mL (≈ 0.462 µM) | MIC (B. subtilis PCI-219): < 0.0063 µg/mL | LD50 [5]: 28 mg/kg | MIC (B. mycoides "0"): 0.2 µg/mL (≈ 0.115 µM)

Bleomycin [reference compound]
MIC (Mycobacterium 607, D46): 0.2 µg/mL | Effect MST %T/C (Lewis Lung carcinoma; [7]): 109% | MST Days (Lewis Lung carcinoma; [7]): 24.0 days | Survivors Day 5 (Lewis Lung carcinoma; 1 mg/kg/day): 6/6 | Effect MST %T/C (Lewis Lung carcinoma; [8]): 109% | MST Days (Lewis Lung carcinoma; [8]): 24.0 days | Survivors Day 5 (Lewis Lung carcinoma; 2 mg/kg/day): 6/6 | Effect MST %T/C (Lewis Lung carcinoma; [9]): 57% | MST Days (Lewis Lung carcinoma; [9]): 12.5 days | Survivors Day 5 (Lewis Lung carcinoma; 4 mg/kg/day): 6/6 | Effect MST %T/C (Lewis Lung carcinoma; [10]): 48% | MST Days (Lewis Lung carcinoma; [10]): 10.5 days | Survivors Day 5 (Lewis Lung carcinoma; 8 mg/kg/day): 6/6 | MIC [1]: > 100 µg/mL | MIC (C. krusei #96 A15052): 3.1 µg/mL | MIC (K. pneumoniae A20328): 25 µg/mL | MIC (Mucor sp.): 3.1 µg/mL | MIC (K. pneumoniae A9678): 6.3 µg/mL | MIC (P. stuartii A20894): 3.1 µg/mL | MIC (P. stuartii A20734): > 100 µg/mL | PD50 (median protective dose) (E. coli NIHJ [2]; Table 11 second part, E. coli NIHJ infection, mice, sc): 2.55 mg/kg | In vivo activity, E. coli NIHJ infection (x/5 mice) (E. coli NIHJ [2]; Table 11 second part, dose (sc) 0.13 mg/kg): 0/5 | In vivo activity, E. coli NIHJ infection (x/5 mice) (E. coli NIHJ [2]; Table 11 second part, dose (sc) 0.5 mg/kg): 1/5 | In vivo activity, E. coli NIHJ infection (x/5 mice) (E. coli NIHJ [2]; Table 11 second part, dose (sc) 2 mg/kg): 1/5 | In vivo activity, E. coli NIHJ infection (x/5 mice) (E. coli NIHJ [2]; Table 11 second part, dose (sc) 8 mg/kg): 5/5 | MIC (E. coli K-12 A9632): 0.8 µg/mL | MIC (S. cerevisiae ATCC 9763): 0.8 µg/mL | MIC (E. coli A20665): 0.2 µg/mL | MIC (T. asteroides): > 100 µg/mL | Effect MST %T/C [6, 11]: 111% | MST Days [6, 11]: 10.0 days | Average Weight Change ([6]; Exp. #5439, 160 mcg/kg/day): +11 g. | Survivors Day 44 ([6]; Exp. #5439, 160 mcg/kg/day): 0/6 | Survivors Day 5 ([6]; Exp. #5439, 160 mcg/kg/day): 6/6 | Effect MST %T/C [6, 12]: 194% | MST Days [6, 12]: 17.5 days | Survivors Day 44 ([6]; Exp. #5439, 640 mcg/kg/day): 1/6 | Survivors Day 5 ([6]; Exp. #5439, 640 mcg/kg/day): 6/6 | Effect MST %T/C [6, 13]: > 489% | MST Days [6, 13]: > 44.0 days | Average Weight Change ([6]; Exp. #5439, 2560 mcg/kg/day): +10 g. | Survivors Day 44 ([6]; Exp. #5439, 2560 mcg/kg/day): 4/6 | Survivors Day 5 ([6]; Exp. #5439, 2560 mcg/kg/day): 6/6 | Effect MST %T/C ([6]; Exp. #5501, 160 mcg/kg/day ip once daily for 8 days): 157% | MST Days ([6]; Exp. #5501, 160 mcg/kg/day ip once daily for 8 days, Bu-2231 A and B as copper-free formate salts): 11.0 days | Survivors Day 5 ([6]; Exp. #5501, 160 mcg/kg/day): 6/6 | Effect MST %T/C ([6]; Exp. #5501, 640 mcg/kg/day ip once daily for 8 days): 179% | MST Days ([6]; Exp. #5501, 640 mcg/kg/day ip once daily for 8 days, Bu-2231 A and B as copper-free formate salts): 12.5 days | Survivors Day 5 ([6]; Exp. #5501, 640 mcg/kg/day): 6/6 | minimum effective dose (MED) ([6]; Table I, Walker 256 ascitic tumor): 0.64 mg/kg | MIC (C. neoformans (Cn-1)): 1.6 µg/mL | MIC (M. flavus D12): 50 µg/mL | MIC (P. mirabilis A9554): 50 µg/mL | MIC (K. pneumoniae A20680): > 100 µg/mL | MIC (Hormodendrum sp.): 0.8 µg/mL | MIC (C. neoformans IAM 4514): 1.6 µg/mL | MIC (E. coli NIHJ [3]): 0.8 µg/mL | MIC [4]: > 100 µg/mL | PD50 (median protective dose) (S. aureus Smith; S. aureus Smith infection, mice, sc): 2.5 mg/kg | In vivo activity vs. S. aureus Smith infection (x/5 mice) (S. aureus Smith; dose (sc) 0.13 mg/kg): 0/5 | In vivo activity vs. S. aureus Smith infection (x/5 mice) (S. aureus Smith; dose (sc) 0.5 mg/kg): 1/5 | In vivo activity vs. S. aureus Smith infection (x/5 mice) (S. aureus Smith; dose (sc) 2 mg/kg): 2/5 | In vivo activity vs. S. aureus Smith infection (x/5 mice) (S. aureus Smith; dose (sc) 8 mg/kg): 4/5 | MIC (K. pneumoniae D11): 0.2 µg/mL | MIC (Mycobacterium 607, D87): 0.8 µg/mL | MIC (C. krusei IAM 4489): 12.5 µg/mL | MIC (B. subtilis PCI-219): < 0.0063 µg/mL | MIC (B. mycoides "0"): 12.5 µg/mL

Reference: patent US4051237A, “Glycopeptide antibiotics Bu-2231 A and B and process for producing same” (priority 1975, dated 1977)
